EP1662258A1, “A substrate free in vitro protein kinase assay” (Sirenade Pharmaceuticals AG, priority 2004, dated 2006)
Values joined by “and” are separate entries in the source; they are usually repeats but may differ in a detail not shown here. Equal values may be shown once. “Also recorded” adds a separate entry of the source.

How the values were obtained:
Src kinase Srcv2 = Src kinase Srcv2 (Homo sapiens, UniProt P12931); test: Src protein tyrosine kinase auto-phosphorylation (autoactivation) assay with Srcv2
Description: After mixing the kinase with the compound the final DMSO concentration was 40%. Then, 190 µl of the preincubated compound/kinase solution are transfered to 96 well Ni-NTA plates (Ni-NTA HisSorb™ plates, white, Qiagen (cat.No.35081) and incubated for 30 min at room temperature on a rotation shaker at 300 rpm to allow binding of the kinase to the wells. The kinase/compound solution containing unbound kinase and compound is carefully replaced by 200 µl of DMSO free initiation buffer (50 mM Tris/HCl, pH 7.2, 10 mM MgCl2, 100 µM ATP) per well and the plate is incubated for 20 min at room temperature on a rotation shaker at 300 rpm.
The initiation buffer is then removed carefully and the plate is washed two times with PBS-Tween (PBS-T) buffer (50 mM potassium phosphate, pH 7.2, 150 mM NaCl, 0.05 % Tween 20) (200 µl per well per washing step).
The antibody solution is removed carefully and the plate is washed three times with 200 µl PBS-T buffer (200 µl per well per washing step).
• 2.7.1 The assay was used for qualitative and quantitative analysis of different compound classes. […] The assay was performed either manually or in a semiautomatic approach using the EP3 robotor (Perkin Elmer) for automated pipetting steps. […] Solution was removed and 200 µl assay buffer, containing 100µM ATP was added and the plate was incubated for 30 min at RT on a rotation shaker. Solution was removed and wells were washed 3 times with 200µl PBST. Afterwards 200 µl 1:2000 diluted anti p-Tyr antibody in PBST-0.5% BSA was added and the plate was incubated for 30 min at RT on a rotation shaker. The degree of src kinase auto-phosphorylation was detected with an anti p-Tyr-antibody as described above. […] The DMSO concentration was 30 %. […] The measurements were carried out either as unicates or as triplicates. The standard deviation is shown by error bars.
In order to get information about the quality of the assay the z' was determined for the assay. For determination of the maximal counts src v2 in the absence of inhibitor was used.

Src kinase (Srcv1) = Src kinase (Srcv1) (Homo sapiens, UniProt P12931); test: Src protein tyrosine kinase auto-phosphorylation (autoactivation) assay, Srcv1 immobilised on Ni-NTA plates, anti p-Tyr chemoluminiscence readout
Description: The assay will be performed as a solid phase assay, which can be done by immobilisation of the kinase (Srcv1) via its His6-tag on Ni-NTA coated 96 wells (Qiagen), as this assay system allows washing steps. Thus it was evaluated, whether it is possible to detect auto-phosphorylated src kinase, immobilized on Ni-NTA coated plates with an HRP labeled anti p-Tyr antibody. Therefore, Src kinase (1.0µM) was incubated for 30 min either in the presence and absence of 50 µM ATP at RT in incubation buffer (50 mM Tris/HCl, pH 7.2, 10 mM MgCl2). Afterwards the solution was diluted to 1.0, 0.5, 0.25 and 0.0 µM final src protein concentration in PBS and incubated for 30 min (V= 200µl) on NiNTA coated plates at RT on a rotation shaker (300 rpm). After removal of the supernatant and 3 times washing with 200 µl PBS-T, immobilized, phosphorylated src kinase was detected. Therefore, a solution of HRP-labeled anti p-Tyr antibody (Abcam) (200 µl, 1:2000 diluted in PBST-0.5% BSA) was added to the wells and the plate was incubated for 30 min at RT °C, 300 rpm. After removal of the supernatant and 3 times washing with 200 µl PBS-T, chemoluminiscence development buffer was added (200 µl of a 1:1 mixture of ECL substrate, Amersham) and chemoluminiscence signal was quantified using Wallac1420 Multilabel counter (Victor^2).
Afterwards 100 µl assay buffer containing 100 µM ATP was added (except for the negative control which was incubated with 100 µl assay buffer without ATP) and the mixture was transfered to Ni-NTA coated plates and further incubated for 20 min at RT on a rotation shaker (300 rpm). The degree of src kinase auto-phosphorylation was detected with an anti p-Tyr-antibody as described above (see Figure 3a).
The solution was transfered on NiNTA plates and incubated for 30 min with 100 µl assay buffer containing 100 µM ATP for the auto-phosphorylation of src. The degree of src kinase auto-phosphorylation was detected with an anti p-Tyr-antibody as described above (see Figure 3b).

SMILES: Cc1ccc(-c2nn(C(C)(C)C)c3ncnc(N)c23)cc1 [PP1]
- chemoluminiscence signal (counts), mean, first series (Src kinase Srcv2): 5948
- chemoluminiscence signal (counts), mean, second series (Src kinase Srcv2): 5700
- chemoluminiscence signal (counts), single values, first series (Src kinase Srcv2): 5816 and 5922 and 5781 and 6275
- chemoluminiscence signal (counts), single values, second series (Src kinase Srcv2): 6060 and 5465 and 5523 and 5752
- inhibition of Srcv2 kinase (dose response curves, in words) (Src kinase Srcv2): showed inhibition
- inhibition of auto-phosphorylation of src kinase (in words) (Src kinase (Srcv1); 100 µl src kinase (1.0 µM), compound 1.25 mM, 30% DMSO, 100 µM ATP, Figure 3b): potently inhibits; also recorded: strongest inhibition
- inhibition of the kinase activity (in words) (Src kinase (Srcv1); Src kinase (100µl, 2.0 µM), PP1 1.25 mM, 10% DMSO, ATP 100 µM, Figure 3A): clear inhibition
